The results in this text go back to US20090227671A1, “Prevention and treatment of atherosclerosis with lithospermate B” (Industry-Academic Cooperation Foundation, priority 2005, published 2009).

What all share (assay type): cell-based, Sprague-Dawley rats
The subject of assay [1] is intracellular reactive oxygen species. Nature of the assay: Intracellular reactive oxygen species in VSMC (DCF fluorescence). The conditions noted are these: LAB pretreatment 1 hr. As to the method:
The amount of reactive oxygen species in cells was measured as described in the previous report [Hamaguchi A, Kim S, Izumi Y, et al. Contribution of extracellular signal-regulated kinase to angiotensin II-induced transforming growth factor-beta1 expression in vascular smooth muscle cells. Hypertension. July 1999; 34(1):126-131]. VSMC was cultured in a culture medium without serum for 24 hrs to stop cell proliferation and then pretreated with LAB with various concentrations of 1, 5, 10, 20, 30 μM for 1 hr. The cells were treated with either 10 ng/mL of PDGF-BB for 10 min or with 100 μM H2O2 for 1 min and then cultured in the presence of 5-(and-6)-chloromethyl-2′,7′-dichlorohydrofluorescein diacetate(CM-H2DCF-DA: Molecular Probes Inc., Eurogene, Oreg., USA) in the dark room for 10 min and cultured cells and generation of reactive oxygen species were observed by using fluorescent microscope.
First, the amount of intracellular reactive oxygen species generated by PDGF-BB was measured by using peroxide-sensitive fluorophore DCF. As shown in FIG. 3A (B-1), the amount of intracellular reactive oxygen species generated by PDGF-BB evaluated with DCF fluorescence was 2.7 times greater. […] In this experiment, LAB was treated with PDGF-BB for 10 min. When LAB was pretreated, the amount of DCF fluorescence was decreased as compared to when it was treated only with PDGF-BB [FIG. 3A(A)]. […] Further, LAB decreased the activity of hydrogen peroxide, which increases the generation of intracellular reactive oxygen species, in proportion to its concentration (FIG. 3A(C)).

For assay [2], the system named is vascular smooth muscle cells. Nature of the assay: VSMC proliferation induced by PDGF-BB (LDH and MTT assays). The conditions noted are these: LAB 1, 5, 10, 20, 30 μM pretreatment, PDGF-BB 24 hrs; LDH and MTT assays. An excerpt: Vascular smooth muscle cells ('VSMC' hereinafter) were separated from thoracic aorta of a Sprague-Dawley weighted about 100-150 g by using collagenase digestion method and then cultured them according to the method disclosed in previous studies [[…], et al. Role of p44/p42 MAP kinase in the age-dependent increase in vascular smooth muscle cell proliferation and neointimal formation. Arterioscler Thromb Vasc Biol. Feb. 1 2003; 23(2):204-210.; Hamaguchi A, Kim S, Izumi Y, et al. Contribution of extracellular signal-regulated kinase to angiotensin II-induced transforming growth factor-beta1 expression in vascular smooth muscle cells. Hypertension. July 1999; 34(1):126-131]. […] The VSMC was treated in a culture medium not containing serum for 24 hrs prior to treatment with PDGF-BB, and the reaction according to the presence or absence of PDGF-BB was analyzed after pretreating with LAB or other reagents. […] The cells were then washed twice with PBS, lysed by using 0.5% Triton-X100, and then the activity of lactate dehydronase (LDH) was measured by using CytoTox-ONETM assay kit (Promega, Madison, Wis., USA) with fluorescence at […]. […]
Background: Tetrazolium assays rely on reduction of a dye to a coloured formazan, in cell work by metabolically active cells.

The next assay deals with ERK1/2. Nature of the assay: Western blot of ERK1/2 phosphorylation in VSMC induced by PDGF-BB. As to the method:
VSMC was washed with PBS and then dissolved in lysis buffer (25 mM Tris HCl, pH 7.4, 25 mM NaCl, 25 mM NaF, 25 mM sodium pyrophosphate, 1 mM sodium vanadate, 2.5 mM EDTA, 2.5 mM EGTA, 0.05% (wt/vol) Triton X-100, 0.5% (wt/vol) SDS, 0.5% (wt/vol) deoxycholate, 0.5% (wt/vol) Nonidet P-40, […], and 1 mM PMSF). The cells were collected and centrifuged at 13,000 rpm for 15 min and the protein concentration of the resulting supernatant was measured by Bradford assay. The proteins were denatured and were subjected to SDS-PAGE and then blotted onto nitrocellulose membranes. The membranes were placed in 5% (w/v) non-fat dry milk in TBS with 0.1% Tween20 (TBS-T) and then placed at room temperature for 3 hrs. The blots were placed at 4° C. along with anti-ERK1/2 or anti-Akt antibodies (Cell signaling Technologh, Berely. Mass., USA) for 16 hrs. The membranes were washed 4 times with TBS-T, added with anti-rabbit IgG antibody conjugated with horseradish peroxidase (1:2,000 diluent) and then placed at room temperature for 1 hr. The immunoreactive bands detected by ECL reagents were developed by Hyperfilm-ECL (Amersham Life Science, Little Chalfont, UK). The bands showing positive responses were quantitated by densitometry and then compared with that of control.
In FIG. 1B, it is shown that both U0126 (20 μM) and LY294002 (40 μM) inhibited activities of LDH and MTT induced by PDGF-BB. As a way to investigate the signal transduction pathway involved in VSMC proliferation induced by PDGF-BB, an experiment was conducted to examine whether PDGF-BB activates a relatively lower signal transduction pathway such as ERK1/2 and Akt.
In general terms: Immunoblotting shows a protein as a band on a membrane.

As for `O=C(/C=C/c1ccc(O)c2c1[C@H](C(=O)O[C@H](Cc1ccc(O)c(O)c1)C(=O)[O-])[C@@H](c1ccc(O)c(O)c1)O2)O[C@H](Cc1ccc(O)c(O)c1)C(=O)[O-].[Mg+2]` [LAB, lithospermate B], in assay [1] (10 ng/mL PDGF-BB 10 min), the “amount of intracellular reactive oxygen species generated by PDGF-BB” value is given as “decreased in proportion to the concentration”. Further, the “intracellular reactive oxygen species induced by hydrogen peroxide” value in assay [1] (100 μM H2O2 1 min) was “decreased”. The “VSMC proliferation induced by PDGF-BB” value in assay [2] is on record as “decreased in proportion to the concentration”. For the same compound, the “decrease of ERK1/2 phosphorylation” value in the assay on ERK1/2 (30 μM LAB, 20 mM NAC, 1 h, then PDGF-BB 10 min, FIG. 5C) is given as 0.8 fold. Besides, the “phosphorylation of ERK1/2 due to PDGF-BB” value in the assay on ERK1/2 (LAB 1, 5, 10, 20, 30 μM for 1 h, PDGF-BB 10 min, FIG. 5B) is recorded as “inhibits”. In addition, the “most effective concentration, inhibition of ERK1/2 phosphorylation” value with ERK1/2 (PDGF-BB 10 ng/mL) was 30 µM.
